From patent US11759462B2, “Spirocyclic compounds as tryptophan hydroxylase inhibitors” (priority 2013, dated 2023)

What follows are compounds tested against T1, Recombinant human TPH1 (MBP tagged) (Homo sapiens, UniProt P17752) (assay: TPH1 in vitro inhibition assay (kinetic fluorescence)). Conditions: TPH1 Range (TPH1 inhibition IC50).
T1 construct: cloning full length human TPH1 cDNA in to a bacterial pMAL-c5E expression vector; made in house; host or cells: E. coli BL21 (DE3)
T1 sequence (P17752 1-444): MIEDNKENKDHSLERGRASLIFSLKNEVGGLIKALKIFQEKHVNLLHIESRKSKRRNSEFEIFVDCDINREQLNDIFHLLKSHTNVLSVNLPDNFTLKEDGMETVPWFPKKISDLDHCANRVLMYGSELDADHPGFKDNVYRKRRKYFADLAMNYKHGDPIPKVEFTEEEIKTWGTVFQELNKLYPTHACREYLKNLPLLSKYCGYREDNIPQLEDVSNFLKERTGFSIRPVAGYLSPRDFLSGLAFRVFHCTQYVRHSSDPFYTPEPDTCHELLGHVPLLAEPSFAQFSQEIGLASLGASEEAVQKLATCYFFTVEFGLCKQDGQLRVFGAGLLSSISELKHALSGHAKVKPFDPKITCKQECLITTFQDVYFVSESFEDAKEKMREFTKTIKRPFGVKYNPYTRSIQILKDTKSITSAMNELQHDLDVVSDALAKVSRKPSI
Format: biochemical
Method in brief: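 Final mix: 15 nM MBP-TPH1, 30 μM Trp, 36 μM 6-methyltetrahydropterin, 25 μM ferrous ammonium sulfate, 50 mM MES pH 7.1, 1% DMSO, room temperature.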
In the case of `Nc1nc(O[C@H](c2ccc(Cl)cc2-c2cc(F)cc(Cl)c2)C(F)(F)F)cc(N2CCC3(CC2)CN[C@H](C(=O)O)C3)n1` [Example 34an, (S)-8-(2-amino-6-((R)-1-(3′,5-dichloro-5′-fluoro-[1,1′-biphenyl]-2-yl)-2,2,2-trifluoroethoxy)pyrimidin-4-yl)-2,8-diazaspiro[4.5]decane-3-carboxylic acid], the IC50 is reported as < 50 nM. With `CC(C)(C)c1cccc(-c2cc(Cl)ccc2[C@@H](Oc2cc(N3CCC4(CC3)CN[C@H](C(=O)O)C4)nc(N)n2)C(F)(F)F)c1` [Example 34ao, (S)-8-(2-amino-6-((R)-1-(3′-(tert-butyl)-5-chloro-[1,1′-biphenyl]-2-yl)-2,2,2-trifluoroethoxy)pyrimidin-4-yl)-2,8-diazaspiro[4.5]decane-3-carboxylic acid] the IC50 was < 50 nM. In the case of `Nc1nc(O[C@H](c2ccc(Cl)cc2-c2cccc(F)c2)C(F)(F)F)cc(N2CCC3(CC2)CN[C@H](C(=O)O)C3)n1` [Example 34as, (S)-8-(2-amino-6-((R)-1-(5-chloro-3′-fluoro-[1,1′-biphenyl]-2-yl)-2,2,2-trifluoroethoxy)pyrimidin-4-yl)-2,8-diazaspiro[4.5]decane-3-carboxylic acid], the IC50 is reported as < 50 nM. `Cc1cc(-c2cc(Cl)ccc2[C@@H](Oc2cc(N3CCC4(CC3)CN[C@H](C(=O)O)C4)nc(N)n2)C(F)(F)F)ccc1Cl` [Example 34at, (S)-8-(2-amino-6-((R)-1-(4′,5-dichloro-3′-methyl-[1,1′-biphenyl]-2-yl)-2,2,2-trifluoroethoxy)pyrimidin-4-yl)-2,8-diazaspiro[4.5]decane-3-carboxylic acid] was tested, and the IC50 was 50 to 300 nM. In the case of `Nc1nc(O[C@H](c2ccc(Cl)cc2-c2cc(F)cc(F)c2)C(F)(F)F)cc(N2CCC3(CC2)CN[C@H](C(=O)O)C3)n1` [Example 34au, (S)-8-(2-amino-6-((R)-1-(5-chloro-3′,5′-difluoro-[1,1′-biphenyl]-2-yl)-2,2,2-trifluoroethoxy)pyrimidin-4-yl)-2,8-diazaspiro[4.5]decane-3-carboxylic acid], the IC50 is reported as < 50 nM. In the case of `Nc1nc(O[C@H](c2ccc(Cl)cc2-c2ccc(F)c(F)c2)C(F)(F)F)cc(N2CCC3(CC2)CN[C@H](C(=O)O)C3)n1` [Example 34aw, (S)-8-(2-amino-6-((R)-1-(5-chloro-3′,4′-difluoro-[1,1′-biphenyl]-2-yl)-2,2,2-trifluoroethoxy)pyrimidin-4-yl)-2,8-diazaspiro[4.5]decane-3-carboxylic acid], the IC50 is reported as < 50 nM. For `Cc1cccc(-c2cc(Cl)ccc2[C@@H](Oc2cc(N3CCC4(CC3)CN[C@H](C(=O)O)C4)nc(N)n2)C(F)(F)F)c1` [Example 34b, (S)-8-(2-amino-6-((R)-1-(5-chloro-3′-methyl-[1,1′-biphenyl]-2-yl)-2,2,2-trifluoroethoxy)pyrimidin-4-yl)-2,8-diazaspiro[4.5]decane-3-carboxylic acid], the IC50 was < 50 nM.

Same assay, conditions: read-out: TPH1 Range (TPH1 inhibition IC50)
For `Nc1nc(O[C@H](c2ccc(Cl)cc2-c2ccc(Cl)c(C(F)(F)F)c2)C(F)(F)F)cc(N2CCC3(CC2)CN[C@H](C(=O)O)C3)n1` [Example 34am, (S)-8-(2-amino-6-((R)-1-(4′,5-dichloro-3′-(trifluoromethyl)-[1,1′-biphenyl]-2-yl)-2,2,2-trifluoroethoxy)pyrimidin-4-yl)-2,8-diazaspiro[4.5]decane-3-carboxylic acid], the IC50 was 50 to 300 nM. With `Nc1nc(O[C@H](c2ccc(Cl)cc2-c2cc(Cl)cc(C(F)(F)F)c2)C(F)(F)F)cc(N2CCC3(CC2)CN[C@H](C(=O)O)C3)n1` [Example 34ap, (S)-8-(2-amino-6-((R)-1-(3′,5-dichloro-5′-(trifluoromethyl)-[1,1′-biphenyl]-2-yl)-2,2,2-trifluoroethoxy)pyrimidin-4-yl)-2,8-diazaspiro[4.5]decane-3-carboxylic acid] the IC50 was 50 to 300 nM. For `Nc1nc(O[C@H](c2ccc(Cl)cc2-c2cc(F)cc(C(F)(F)F)c2)C(F)(F)F)cc(N2CCC3(CC2)CN[C@H](C(=O)O)C3)n1` [Example 34aq, (S)-8-(2-amino-6-((R)-1-(5-chloro-3′-fluoro-5′-(trifluoromethyl)-[1,1′-biphenyl]-2-yl)-2,2,2-trifluoroethoxy)pyrimidin-4-yl)-2,8-diazaspiro[4.5]decane-3-carboxylic acid], the IC50 was < 50 nM. `Nc1nc(O[C@H](c2ccc(Cl)cc2-c2ccc(F)c(Cl)c2)C(F)(F)F)cc(N2CCC3(CC2)CN[C@H](C(=O)O)C3)n1` [Example 34av, (S)-8-(2-amino-6-((R)-1-(3′,5-dichloro-4′-fluoro-[1,1′-biphenyl]-2-yl)-2,2,2-trifluoroethoxy)pyrimidin-4-yl)-2,8-diazaspiro[4.5]decane-3-carboxylic acid] was tested, and the IC50 was < 50 nM. `Nc1nc(O[C@H](c2ccc(Cl)cc2-c2ccc(C(F)(F)F)c(Cl)c2)C(F)(F)F)cc(N2CCC3(CC2)CN[C@H](C(=O)O)C3)n1` [Example 34ax, (S)-8-(2-amino-6-((R)-1-(3′,5-dichloro-4′-(trifluoromethyl)-[1,1′-biphenyl]-2-yl)-2,2,2-trifluoroethoxy)pyrimidin-4-yl)-2,8-diazaspiro[4.5]decane-3-carboxylic acid] gave an IC50 of 50 to 300 nM. Compound `Cc1ccc(-c2cc(Cl)ccc2[C@@H](Oc2cc(N3CCC4(CC3)CN[C@H](C(=O)O)C4)nc(N)n2)C(F)(F)F)cc1C` [Example 34ay, (S)-8-(2-amino-6-((R)-1-(5-chloro-3′,4′-dimethyl-[1,1′-biphenyl]-2-yl)-2,2,2-trifluoroethoxy)pyrimidin-4-yl)-2,8-diazaspiro[4.5]decane-3-carboxylic acid] has an IC50 of 50 to 300 nM. With `CCOc1ccc(-c2cc(Cl)ccc2[C@@H](Oc2cc(N3CCC4(CC3)CN[C@H](C(=O)O)C4)nc(N)n2)C(F)(F)F)cc1F` [Example 34az, (S)-8-(2-amino-6-((R)-1-(5-chloro-4′-ethoxy-3′-fluoro-[1,1′-biphenyl]-2-yl)-2,2,2-trifluoroethoxy)pyrimidin-4-yl)-2,8-diazaspiro[4.5]decane-3-carboxylic acid] the IC50 was 300 to 3000 nM. With `Cc1cc(C)cc(-c2cc(Cl)ccc2[C@@H](Oc2cc(N3CCC4(CC3)CN[C@H](C(=O)O)C4)nc(N)n2)C(F)(F)F)c1` [Example 34ba, (S)-8-(2-amino-6-((R)-1-(5-chloro-3′,5′-dimethyl-[1,1′-biphenyl]-2-yl)-2,2,2-trifluoroethoxy)pyrimidin-4-yl)-2,8-diazaspiro[4.5]decane-3-carboxylic acid] the IC50 was < 50 nM. `Cc1cc(-c2cc(Cl)ccc2[C@@H](Oc2cc(N3CCC4(CC3)CN[C@H](C(=O)O)C4)nc(N)n2)C(F)(F)F)ccc1OC(F)(F)F` [Example 34bb, (S)-8-(2-amino-6-((R)-1-(5-chloro-3′-methyl-4′-(trifluoromethoxy)-[1,1′-biphenyl]-2-yl)-2,2,2-trifluoroethoxy)pyrimidin-4-yl)-2,8-diazaspiro[4.5]decane-3-carboxylic acid] showed an IC50 of 50 to 300 nM. Work on `Cc1cc(-c2cc(Cl)ccc2[C@@H](Oc2cc(N3CCC4(CC3)CN[C@H](C(=O)O)C4)nc(N)n2)C(F)(F)F)cc(C)c1Cl` [Example 34bc, (S)-8-(2-amino-6-((R)-1-(4′,5-dichloro-3′,5′-dimethyl-[1,1′-biphenyl]-2-yl)-2,2,2-trifluoroethoxy)pyrimidin-4-yl)-2,8-diazaspiro[4.5]decane-3-carboxylic acid] yielded an IC50 of 50 to 300 nM. `Cc1cc(-c2cc(Cl)ccc2[C@@H](Oc2cc(N3CCC4(CC3)CN[C@H](C(=O)O)C4)nc(N)n2)C(F)(F)F)ccc1F` [Example 34bd, (S)-8-(2-amino-6-((R)-1-(5-chloro-4′-fluoro-3′-methyl-[1,1′-biphenyl]-2-yl)-2,2,2-trifluoroethoxy)pyrimidin-4-yl)-2,8-diazaspiro[4.5]decane-3-carboxylic acid] was tested, and the IC50 was < 50 nM. In the case of `Cc1cc(Cl)cc(-c2cc(Cl)ccc2[C@@H](Oc2cc(N3CCC4(CC3)CN[C@H](C(=O)O)C4)nc(N)n2)C(F)(F)F)c1` [Example 34be, (S)-8-(2-amino-6-((R)-1-(3′,5-dichloro-5′-methyl-[1,1′-biphenyl]-2-yl)-2,2,2-trifluoroethoxy)pyrimidin-4-yl)-2,8-diazaspiro[4.5]decane-3-carboxylic acid], the IC50 is reported as < 50 nM. In the case of `Nc1nc(O[C@H](c2ccc(Cl)cc2-c2cc(F)c(F)c(F)c2)C(F)(F)F)cc(N2CCC3(CC2)CN[C@H](C(=O)O)C3)n1` [Example 34bf, (S)-8-(2-amino-6-((R)-1-(5-chloro-3′,4′,5′-trifluoro-[1,1′-biphenyl]-2-yl)-2,2,2-trifluoroethoxy)pyrimidin-4-yl)-2,8-diazaspiro[4.5]decane-3-carboxylic acid], the IC50 is reported as 50 to 300 nM. `Nc1nc(O[C@H](c2ccc(Cl)cc2-c2cccc(OC(F)(F)F)c2)C(F)(F)F)cc(N2CCC3(CC2)CN[C@H](C(=O)O)C3)n1` [Example 34bg, (S)-8-(2-amino-6-((R)-1-(5-chloro-3′-(trifluoromethoxy)-[1,1′-biphenyl]-2-yl)-2,2,2-trifluoroethoxy)pyrimidin-4-yl)-2,8-diazaspiro[4.5]decane-3-carboxylic acid] gave an IC50 of 50 to 300 nM. In the case of `Nc1nc(O[C@H](c2ccc(Cl)cc2-c2cc(C(F)(F)F)cc(C(F)(F)F)c2)C(F)(F)F)cc(N2CCC3(CC2)CN[C@H](C(=O)O)C3)n1` [Example 34bh, (S)-8-(2-amino-6-((R)-1-(5-chloro-3′,5′-bis(trifluoromethyl)-[1,1′-biphenyl]-2-yl)-2,2,2-trifluoroethoxy)pyrimidin-4-yl)-2,8-diazaspiro[4.5]decane-3-carboxylic acid], the IC50 is reported as 300 to 3000 nM.
